Calls of active or inactive are those of the source. No rule for the calls is given here.
System: CCRIS mutagenicity, Ames/micronucleus/aberration tests
Test: CCRIS mutagenicity studies
[1] = Test System: AMES SALMONELLA TYPHIMURIUM, Strain/Indicator: TA98, Metabolic Activation: HAMSTER, LIVER, S-9, AROCLOR 1254 (10%), Method: PREINCUBATION
[2] = Test System: AMES SALMONELLA TYPHIMURIUM, Strain/Indicator: TA98, Metabolic Activation: NONE, Method: PREINCUBATION
[3] = Test System: AMES SALMONELLA TYPHIMURIUM, Strain/Indicator: TA98, Metabolic Activation: RAT, LIVER, S-9, AROCLOR 1254 (10%), Method: PREINCUBATION
[4] = Test System: AMES SALMONELLA TYPHIMURIUM, Strain/Indicator: TA100, Metabolic Activation: HAMSTER, LIVER, S-9, AROCLOR 1254 (10%), Method: PREINCUBATION
[5] = Test System: AMES SALMONELLA TYPHIMURIUM, Strain/Indicator: TA100, Metabolic Activation: NONE, Method: PREINCUBATION
[6] = Test System: AMES SALMONELLA TYPHIMURIUM, Strain/Indicator: TA100, Metabolic Activation: RAT, LIVER, S-9, AROCLOR 1254 (10%), Method: PREINCUBATION
[7] = Test System: AMES SALMONELLA TYPHIMURIUM, Strain/Indicator: TA1535, Metabolic Activation: HAMSTER, LIVER, S-9, AROCLOR 1254 (10%), Method: PREINCUBATION
[8] = Test System: AMES SALMONELLA TYPHIMURIUM, Strain/Indicator: TA1535, Metabolic Activation: NONE, Method: PREINCUBATION
[9] = Test System: AMES SALMONELLA TYPHIMURIUM, Strain/Indicator: TA1535, Metabolic Activation: RAT, LIVER, S-9, AROCLOR 1254 (10%), Method: PREINCUBATION
[10] = Test System: AMES SALMONELLA TYPHIMURIUM, Strain/Indicator: TA1538, Metabolic Activation: NONE, Method: STANDARD PLATE
[11] = Test System: AMES SALMONELLA TYPHIMURIUM, Strain/Indicator: TA98, Metabolic Activation: NONE, Method: STANDARD PLATE
[12] = Test System: AMES SALMONELLA TYPHIMURIUM, Strain/Indicator: TA100, Metabolic Activation: NONE, Method: STANDARD PLATE
[13] = Test System: AMES SALMONELLA TYPHIMURIUM, Strain/Indicator: TA102, Metabolic Activation: NONE, Method: STANDARD PLATE
[14] = Test System: AMES SALMONELLA TYPHIMURIUM, Strain/Indicator: TA97, Metabolic Activation: NONE, Method: STANDARD PLATE

CON
mutagenic call [1]: inactive; negative | mutagenic call [2]: inactive; negative | mutagenic call [3]: inactive; negative | mutagenic call [4]: inactive; negative | mutagenic call [5]: inactive; negative | mutagenic call [6]: inactive; negative | mutagenic call [7]: inactive; negative | mutagenic call [8]: inactive; negative | mutagenic call [9]: inactive; negative | mutagenic call (Test System: AMES SALMONELLA TYPHIMURIUM, Strain/Indicator: TA1537, Metabolic Activation: HAMSTER, LIVER, S-9, AROCLOR 1254 (10%), Method: PREINCUBATION): inactive; negative | mutagenic call (Test System: AMES SALMONELLA TYPHIMURIUM, Strain/Indicator: TA1537, Metabolic Activation: NONE, Method: PREINCUBATION): inactive; negative | mutagenic call (Test System: AMES SALMONELLA TYPHIMURIUM, Strain/Indicator: TA1537, Metabolic Activation: RAT, LIVER, S-9, AROCLOR 1254 (10%), Method: PREINCUBATION): inactive; negative

Nc1ccc(-c2ccc(-c3ccc(-c4ccc(N)cc4)cc3)cc2)cc1
mutagenic call [10]: inactive; negative | mutagenic call (Test System: AMES SALMONELLA TYPHIMURIUM, Strain/Indicator: TA1538, Metabolic Activation: RAT, LIVER, S-9, AROCLOR 1254, Method: STANDARD PLATE): inactive; negative

COc1cc(Cc2cnc(N)nc2N)cc(OC)c1OC
mutagenic call (Test System: AMES SALMONELLA TYPHIMURIUM, Strain/Indicator: TA97A, Metabolic Activation: NONE, Method: STANDARD PLATE): inactive; negative | mutagenic call (Test System: AMES SALMONELLA TYPHIMURIUM, Strain/Indicator: TA97A, Metabolic Activation: RAT, LIVER, S-9, PHENOBARBITAL, Method: STANDARD PLATE): inactive; negative | mutagenic call [11]: active; positive | mutagenic call (Test System: AMES SALMONELLA TYPHIMURIUM, Strain/Indicator: TA98, Metabolic Activation: RAT, LIVER, S-9, PHENOBARBITAL, Method: STANDARD PLATE): active; positive | mutagenic call [12]: inactive; negative | mutagenic call (Test System: AMES SALMONELLA TYPHIMURIUM, Strain/Indicator: TA100, Metabolic Activation: RAT, LIVER, S-9, PHENOBARBITAL, Method: STANDARD PLATE): inactive; negative | mutagenic call [13]: inactive; negative | mutagenic call (Test System: AMES SALMONELLA TYPHIMURIUM, Strain/Indicator: TA102, Metabolic Activation: RAT, LIVER, S-9, PHENOBARBITAL, Method: STANDARD PLATE): inactive; negative | mutagenic call [10]: active; positive | mutagenic call (Test System: AMES SALMONELLA TYPHIMURIUM, Strain/Indicator: TA1538, Metabolic Activation: RAT, LIVER, S-9, PHENOBARBITAL, Method: STANDARD PLATE): active; positive | mutagenic call (Test System: E.COLI, Strain/Indicator: WP2UVRA/PKM101, Metabolic Activation: NONE, Method: PREINCUBATION): inactive; negative | mutagenic call (Test System: E.COLI, Strain/Indicator: WP2UVRA/PKM101, Metabolic Activation: RAT LIVER S-9, PHENOBARBITAL AND 5,6-BENZOFLAVONE, Method: PREINCUBATION): inactive; negative

CC[C@@]1(O)C[C@H](O[C@H]2C[C@H](N(C)C)[C@H](O[C@H]3C[C@H](O)[C@H](O[C@H]4C[C@H](O)[C@H](O)[C@H](C)O4)[C@H](C)O3)[C@H](C)O2)c2c(cc3c(c2O)C(=O)c2c(O)ccc(O)c2C3=O)[C@H]1C(=O)OC
mutagenic call [14]: inactive; negative | mutagenic call [11]: inactive; negative | mutagenic call [13]: active; positive | mutagenic call (Test System: AMES SALMONELLA TYPHIMURIUM, Strain/Indicator: TA104, Metabolic Activation: NONE, Method: STANDARD PLATE): active; positive | mutagenic call (Test System: AMES SALMONELLA TYPHIMURIUM, Strain/Indicator: TA2637, Metabolic Activation: NONE, Method: STANDARD PLATE): inactive; negative

Nc1ccc(-c2ccc(N)cc2[N+](=O)[O-])c([N+](=O)[O-])c1
mutagenic call [2]: active; positive | mutagenic call (Test System: AMES SALMONELLA TYPHIMURIUM, Strain/Indicator: TA98, Metabolic Activation: RAT, LIVER, S-9, KANECHLOR 500, Method: PREINCUBATION): active; positive

NC1CCC(N)CC1 (centres undefined)
mutagenic call [14]: inactive; negative | mutagenic call (Test System: AMES SALMONELLA TYPHIMURIUM, Strain/Indicator: TA97, Metabolic Activation: RAT, LIVER, S-9, Method: STANDARD PLATE): inactive; negative | mutagenic call [11]: inactive; negative | mutagenic call (Test System: AMES SALMONELLA TYPHIMURIUM, Strain/Indicator: TA98, Metabolic Activation: RAT, LIVER, S-9, Method: STANDARD PLATE): inactive; negative | mutagenic call [12]: inactive; negative | mutagenic call (Test System: AMES SALMONELLA TYPHIMURIUM, Strain/Indicator: TA100, Metabolic Activation: RAT, LIVER, S-9, Method: STANDARD PLATE): inactive; negative | mutagenic call (Test System: AMES SALMONELLA TYPHIMURIUM, Strain/Indicator: TA1535, Metabolic Activation: NONE, Method: STANDARD PLATE): inactive; negative | mutagenic call (Test System: AMES SALMONELLA TYPHIMURIUM, Strain/Indicator: TA1535, Metabolic Activation: RAT, LIVER, S-9, Method: STANDARD PLATE): inactive; negative

CCCCC(C=O)CC (centres undefined)
mutagenic call (Test System: AMES SALMONELLA TYPHIMURIUM, Strain/Indicator: TA97, Metabolic Activation: HAMSTER, LIVER, S-9, AROCLOR 1254 (10%), Method: PREINCUBATION): inactive; negative | mutagenic call (Test System: AMES SALMONELLA TYPHIMURIUM, Strain/Indicator: TA97, Metabolic Activation: HAMSTER, LIVER, S-9, AROCLOR 1254 (30%), Method: PREINCUBATION): inactive; negative | mutagenic call (Test System: AMES SALMONELLA TYPHIMURIUM, Strain/Indicator: TA97, Metabolic Activation: NONE, Method: PREINCUBATION): inactive; negative | mutagenic call (Test System: AMES SALMONELLA TYPHIMURIUM, Strain/Indicator: TA97, Metabolic Activation: RAT, LIVER, S-9, AROCLOR 1254 (10%), Method: PREINCUBATION): inactive; negative | mutagenic call (Test System: AMES SALMONELLA TYPHIMURIUM, Strain/Indicator: TA97, Metabolic Activation: RAT, LIVER, S-9, AROCLOR 1254 (30%), Method: PREINCUBATION): inactive; negative | mutagenic call [1]: inactive; negative | mutagenic call (Test System: AMES SALMONELLA TYPHIMURIUM, Strain/Indicator: TA98, Metabolic Activation: HAMSTER, LIVER, S-9, AROCLOR 1254 (30%), Method: PREINCUBATION): inactive; negative | mutagenic call [2]: inactive; negative | mutagenic call [3]: inactive; negative | mutagenic call (Test System: AMES SALMONELLA TYPHIMURIUM, Strain/Indicator: TA98, Metabolic Activation: RAT, LIVER, S-9, AROCLOR 1254 (30%), Method: PREINCUBATION): inactive; negative | mutagenic call [4]: inactive; negative | mutagenic call (Test System: AMES SALMONELLA TYPHIMURIUM, Strain/Indicator: TA100, Metabolic Activation: HAMSTER, LIVER, S-9, AROCLOR 1254 (30%), Method: PREINCUBATION): inactive; negative | mutagenic call [5]: inactive; negative | mutagenic call [6]: inactive; negative | mutagenic call (Test System: AMES SALMONELLA TYPHIMURIUM, Strain/Indicator: TA100, Metabolic Activation: RAT, LIVER, S-9, AROCLOR 1254 (30%), Method: PREINCUBATION): inactive; negative | mutagenic call [7]: inactive; negative | mutagenic call (Test System: AMES SALMONELLA TYPHIMURIUM, Strain/Indicator: TA1535, Metabolic Activation: HAMSTER, LIVER, S-9, AROCLOR 1254 (30%), Method: PREINCUBATION): inactive; negative | mutagenic call [8]: inactive; negative | mutagenic call [9]: inactive; negative | mutagenic call (Test System: AMES SALMONELLA TYPHIMURIUM, Strain/Indicator: TA1535, Metabolic Activation: RAT, LIVER, S-9, AROCLOR 1254 (30%), Method: PREINCUBATION): inactive; negative

CNC(=O)N(C)C(=O)NO
mutagenic call [11]: inactive; negative | mutagenic call [12]: inactive; negative

c1ccc2c(OC[C@@H]3CO3)cccc2c1
mutagenic call [12]: active; positive
